Measurements taken from patent publication US12612366B2, “Salts and crystal forms of omecamtiv mecarbil” (Amgen Inc., priority 2018, dated 2026).
Structures can show the parent of a compound that is named as a salt.

Assays:
[1] = Moisture sorption (dynamic vapor sorption, DVS); type: physicochemical; conditions: 25° C.; for Vapor sorption behaviour (hygroscopicity, form conversion): DVS 0-95% RH
Description: Moisture balance was collected using a dynamic vapor sorption (DVS) analyzer. Relative humidity (RH) was set to 0, 5, 15, 25, 35, 45, 55, 65, 75, 85 and 95% RH for 2 sorption/desorption cycles at 25° C. Equilibration criteria was set at 0.001% weight. Approximately 10 mg of sample was used.

[2] = Solubility: excess solid in water, pH 1.0 or pH 4.5 buffer, filtrate analyzed by HPLC-UV; type: physicochemical; conditions: for pH given with the water solubility: water solubility sample; for Water solubility / Solubility in pH 1 buffer / Solubility in pH 4.5 buffer: room temperature; for Water solubility: suspension dispersed for at least 24, filtered, HPLC-UV, pH given in brackets
Description: An excess of solid was added to water, pH 1.0 or pH 4.5 buffer to produce a suspension and dispersed for at least 24 at room temperature. Suspensions were filtered. Filtrate was analyzed by HPLC-UV and compared against a standard curve to determine the solution concentration of the crystal form.

SMILES	pH given with the water solubility [2]	Water solubility [2]	further results
COC(=O)N1CCN(Cc2cccc(NC(=O)Nc3ccc(C)nc3)c2F)CC1 [Amorphous hydrochloride salt, omecamtiv mecarbil]	–	–	Vapor sorption behaviour (hygroscopicity, form conversion) [1]: hygroscopic and converts to the crystalline bis-hydrochloride monohydrate Form A; Vapor sorption behaviour (hygroscopicity, form conversion) ([1]; listed as amorphous hydrochloride salt): weight loss due to crystallization to Form A up to 95% RH; Moisture sorption weight gain ([1]; by 50% RH): ~11%
COC(=O)N1CCN(Cc2cccc(NC(=O)Nc3ccc(C)nc3)c2F)CC1 [Bis-fumarate crystalline salt form C, omecamtiv mecarbil]	3.1	13700 µg/mL	–
COC(=O)N1CCN(Cc2cccc(NC(=O)Nc3ccc(C)nc3)c2F)CC1 [Bis-malonate crystalline salt, omecamtiv mecarbil]	3.69	greater than 62 mg/mL	–
COC(=O)N1CCN(Cc2cccc(NC(=O)Nc3ccc(C)nc3)c2F)CC1 [Bis-mesylate crystalline salt form B, omecamtiv mecarbil]	–	–	Solubility in pH 1 buffer [2]: greater than 23 mg/mL; Solubility in pH 4.5 buffer [2]: greater than 23 mg/mL
COC(=O)N1CCN(Cc2cccc(NC(=O)Nc3ccc(C)nc3)c2F)CC1 [Bis-naphthalate-2-sulfonate crystalline salt] [omecamtiv mecarbil]	–	–	Solubility in pH 1 buffer [2]: greater than 10 mg/mL; Solubility in pH 4.5 buffer [2]: greater than 10 mg/mL
COC(=O)N1CCN(Cc2cccc(NC(=O)Nc3ccc(C)nc3)c2F)CC1 [Bis-sulfate crystalline salt form A, omecamtiv mecarbil]	1.5	16000 µg/mL	–
COC(=O)N1CCN(Cc2cccc(NC(=O)Nc3ccc(C)nc3)c2F)CC1 [Bis-sulfate crystalline salt form B, omecamtiv mecarbil]	3.5	9000 µg/mL	–
COC(=O)N1CCN(Cc2cccc(NC(=O)Nc3ccc(C)nc3)c2F)CC1 [Bis-tartrate crystalline salt form A, omecamtiv mecarbil]	3.28	> 53000 µg/mL	–
COC(=O)N1CCN(Cc2cccc(NC(=O)Nc3ccc(C)nc3)c2F)CC1 [Hemi-succinate crystalline salt, omecamtiv mecarbil]	4.7	7400 µg/mL	–
COC(=O)N1CCN(Cc2cccc(NC(=O)Nc3ccc(C)nc3)c2F)CC1 [Mesylate crystalline salt form A, omecamtiv mecarbil]	1.39	greater than 72 mg/mL	–
COC(=O)N1CCN(Cc2cccc(NC(=O)Nc3ccc(C)nc3)c2F)CC1 [Mono-napadisylate crystalline salt, omecamtiv mecarbil]	2.35	300 µg/mL	–
COC(=O)N1CCN(Cc2cccc(NC(=O)Nc3ccc(C)nc3)c2F)CC1 [bis-maleate crystalline salt form A, omecamtiv mecarbil]	3.7	3800 µg/mL	–
